Target: human mGluR4 (Homo sapiens (Human), UniProt Q14833)
Assay: mGluR4 potentiation assay, CHO cells transfected with human mGluR4, Ca2+-sensitive dye, EC20 agonist
Assay type: cell-based
Conditions: potentiation of mGluR4
Protocol: The disclosed compounds and compositions can be evaluated for their ability to act as a potentiator of metabotropic glutamate receptor activity, in particular mGluR4 activity, by any suitable known methodology known in the art. For example, Chinese Hamster Ovary (CHO) cells transfected with human mGluR4 or HEK cells co-transfected with rat mGluR4 and the G-protein regulated Inwardly Rectifying Potassium channel (GIRK) were plated in clear bottom assay plates for assay in a Hamamatsu FDSS Fluorometric Plate Reader. The cells were loaded with either a Ca2+-sensitive fluorescent dye or the thallium responsive dye and the plates were washed and placed into a suitable kinetic plate reader. For human mGluR4 assays, a fluorescence baseline was established for 3-5 seconds, the disclosed compounds were then added to the cells, and the response in cells was measured. Approximately two and a half minutes later, a concentration of mGluR4 orthosteric agonist (e.g. glutamate or L-AP4) eliciting approximately 20% (EC20) of the maximal agonist response was added to the cells, and the response was measured. Two minutes later, a concentration of mGluR4 agonist (e.g. glutamate or L-AP4) eliciting 80% (EC80) of the maximal agonist response was added to the cells, and the response was measured. For rat mGluR4/GIRK experiments, a baseline was established for approximately five seconds, disclosed compounds were added, and either an EC20 or EC80 concentration of agonist was added approximately two and one half minutes later. Potentiation of the agonist response of mGluR4 by the disclosed compounds was observed as an increase in response to the EC20 concentration of agonist in the presence of compound compared to the response to agonist in the absence of compound. Similarly, antagonism of the agonist response of mGluR4 by the disclosed compounds was observed as a decrease in response to the EC80 concentration of agonist in the presence of compound compared to the response to agonist in the absence of compound.
The above described assay operated in two modes. In the first mode, a range of concentrations of the disclosed compounds are added to cells, followed by a single fixed concentration of agonist. If the compound acts as a potentiatior, an EC50 value for potentiation and a maximum extent of potentiation by the compound at this concentration of agonist is determined by non-linear curve fitting. If the compound acts as a noncompetitive antagonist, an IC50 value is determined by non-linear curve fitting. In the second mode, several fixed concentrations of the disclosed compounds are added to various wells on a plate, followed by a range in concentrations of agonist for each concentration of disclosed compound. The EC50 values for the agonist at each concentration of compound are determined by non-linear curve fitting. A decrease in the EC50 value of the agonist with increasing concentrations of the sample compound (a leftward shift of the agonist concentration-response curve) is an indication of the degree of mGluR4 potentiation at a given concentration of the sample compound. A decrease in the maximal response of the agonist with increasing concentrations of the sample compounds, with or without a rightward shift in agonist potency, is an indication of the degree of noncompetitive antagonism at mGluR4. The second mode also indicates whether the sample compounds also affect the maximum response to mGluR4 to agonists.

[1] = main compound table, species not given
[2] = summary list repeated at the end of the table, species not stated

Chain of human mGluR4 (Q14833 33-912): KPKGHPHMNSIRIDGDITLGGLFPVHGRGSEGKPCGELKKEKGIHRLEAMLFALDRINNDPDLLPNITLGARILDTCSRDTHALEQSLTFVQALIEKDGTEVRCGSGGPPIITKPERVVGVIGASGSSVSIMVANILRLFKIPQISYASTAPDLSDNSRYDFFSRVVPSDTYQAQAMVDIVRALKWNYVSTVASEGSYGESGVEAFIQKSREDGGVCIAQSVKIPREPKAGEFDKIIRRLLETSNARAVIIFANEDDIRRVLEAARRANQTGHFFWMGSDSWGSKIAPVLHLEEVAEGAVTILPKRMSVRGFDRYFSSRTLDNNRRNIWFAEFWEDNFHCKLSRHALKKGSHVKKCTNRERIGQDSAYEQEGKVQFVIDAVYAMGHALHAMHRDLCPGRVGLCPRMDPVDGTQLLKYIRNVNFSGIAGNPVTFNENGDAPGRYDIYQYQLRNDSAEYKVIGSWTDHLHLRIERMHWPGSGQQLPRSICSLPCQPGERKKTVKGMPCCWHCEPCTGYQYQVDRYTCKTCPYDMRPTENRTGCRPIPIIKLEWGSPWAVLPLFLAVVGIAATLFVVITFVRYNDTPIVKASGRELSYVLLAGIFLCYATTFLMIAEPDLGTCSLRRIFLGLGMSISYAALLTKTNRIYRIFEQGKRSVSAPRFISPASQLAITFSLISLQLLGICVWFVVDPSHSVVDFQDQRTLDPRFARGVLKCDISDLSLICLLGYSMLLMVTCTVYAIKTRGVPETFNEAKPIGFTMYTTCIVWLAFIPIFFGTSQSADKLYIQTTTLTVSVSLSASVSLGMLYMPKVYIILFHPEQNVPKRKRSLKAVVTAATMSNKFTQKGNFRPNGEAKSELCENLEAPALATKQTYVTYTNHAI

| Structure (SMILES) | EC50 [1] [µM] | EC50 [2] [µM] |
| --- | --- | --- |
| CC(C)(C)Cc1nsc2cc(Nc3n[nH]c4nccnc34)cnc12 [Example 27, 3-neopentyl-N-(1H-pyrazolo[3,4-b]pyrazin-3-yl) isothiazole[4,5-b] pyridin-6-amine] | 0.0995 | 0.0995 |
| CC(C)(C)Cc1nsc2cc(Nc3n[nH]c4ncccc34)cnc12 [Example 28, 3-neopentyl-N-(1H-pyrazolo[3,4-b]pyridin-3-yl) isothiazolo[4,5-b] pyridin-6-amine] | 0.119 | 0.119 |
| FC(F)(F)c1nsc2cc(Nc3n[nH]c4ncccc34)ccc12 [Example 29, N-(1H-pyrazolo[3,4-b]pyridin-3-yl)-3-(trifluoromethyl)benzo[d] isothiazol-6-amine] | 1.24 | 1.24 |
| O=C(NC1CC(F)(F)C1)c1nsc2cc(Nc3n[nH]c4nccnc34)ccc12 [Example 30, 6-((1H-pyrazolo[3,4-b]pyrazin-3-yl)amino)-N-(3,3-difluorocyclobutyl) benzo[d] isothiazole-3-carboxamide] | 0.0426 | 0.0426 |
| CN1CCC2(CCN(C(=O)c3nsc4cc(Nc5n[nH]c6nccnc56)ccc34)CC2)C1=O [Example 31, 8-(6-((1H-pyrazolo[3,4-b]pyrazin-3-yl)amino)benzo[d]isothiazole-3-carbonyl)-2-methyl-2,8-diazaspiro[4.5]decan-1-one] | 1.21 | 1.21 |
| CN1CCN(C(=O)c2nsc3cc(Nc4n[nH]c5nccnc45)ccc23)CC1=O [Example 32, 4-(6-((1H-pyrazolo[3,4-b]pyrazin-3-yl)amino)benzo [d]isothiazole-3-carbonyl)-1-methylpiperazin-2-one] | 1.53 | 1.53 |
| O=C(c1nsc2cc(Nc3n[nH]c4nccnc34)ccc12)N1CCC(F)(F)CC1 [Example 33, (6-((1H-pyrazolo[3,4-b]pyrazin-3-yl)amino)benzo[d]isothiazol-3-yl)(4,4-difluoropiperidin-1-yl) methanone] | 0.827 | 0.827 |
| CC(=O)N1CCC(c2nsc3cc(Nc4n[nH]c5cccnc45)ccc23)CC1 [Example 35, 1-(4-(6-((1H-pyrazolo[4,3-b]pyridin-3-yl)amino)benzo[d]isothiazol-3-yl)piperidin-1-yl)ethan-1-one] | 0.199 | 0.199 |
| c1cnc2c(Nc3ccc4c(C5CC5)nsc4c3)n[nH]c2c1 [Example 36, 3-cyclopropyl-N-(1H-pyrazolo [4,3-b]pyridin-3-yl) benzo[d]isothiazol-6-amine] | 0.0782 | 0.0782 |
| c1cnc2c(Nc3ccc4c(C5CC5)nsc4c3)n[nH]c2n1 [Example 37, 3-cyclopropyl-N-(1H-pyrazolo [3,4-b]pyrazin-3-yl)benzo [d]isothiazol-6-amine] | 0.0611 | 0.0611 |
| CC(C)(O)c1nsc2cc(Nc3n[nH]c4cccnc34)ccc12 [Example 38, 2-(6-((1H-pyrazolo [4,3-b]pyridin-3-yl)amino)benzo[d]isothiazol-3-yl)propan-2-ol] | 1.03 | 1.03 |
| CCC(C)c1nsc2cc(Nc3n[nH]c4cccnc34)cnc12 (stereo not drawn) [Example 40, 3-(sec-butyl)-N-(1H-pyrazolo[4,3-b]pyridin-3-yl)isothiazolo[4,5-b] pyridin-6-amine] | 0.0542 | 0.0542 |
| CCc1nsc2cc(Nc3n[nH]c4ncccc34)cnc12 [Example 42, 3-ethyl-N-(1H-pyrazolo[3,4-b]pyridin-3-yl)isothiazolo [4,5-b]pyridin-6-amine] | 0.1 | 0.1 |
| c1ccc(-c2nsc3cc(Nc4n[nH]c5cccnc45)ccc23)cc1 [Example 43, 3-phenyl-N-(1H-pyrazolo [4,3-b]pyridin-3-yl)benzo[d]isothiazol-6-amine] | 0.226 | 0.226 |
| c1ccc(-c2nsc3cc(Nc4n[nH]c5ncccc45)ccc23)cc1 [Example 44, 3-phenyl-N-(1H-pyrazolo [3,4-b]pyridin-3-yl)benzo[d]isothiazol-6-amine] | 2.04 | 2.04 |
| c1cnc2c(Nc3ccc4c(-c5ccsc5)nsc4c3)n[nH]c2c1 [Example 45, N-(1H-pyrazolo[4,3-b]pyiridn-3-yl)-3-(thiophen-3-yl)benzo[d] isothiazol-6-amine] | 0.216 | 0.216 |
| c1cnc2c(Nc3ccc4c(-c5ccsc5)nsc4c3)n[nH]c2n1 [Example 46, N-(1H-pyrazolo[3,4-b]pyrazin-3-yl)-3-(thiophen-3-yl)benzo[d] isothiazol-6-amine] | 0.144 | 0.144 |
| Cc1nsc2cc(Nc3n[nH]c4ncccc34)cnc12 [Example 48, 3-methyl-N-(1H-pyrazolo [3,4-b]pyridin-3-yl)isothiazolo[4,5-b] pyridin-6-amine] | 0.18 | 0.18 |
| CN(Cc1nsc2cc(Nc3n[nH]c4ncccc34)cnc12)C1CC(F)(F)C1 [Example 53, 3-(((3,3-difluorocyclobutyl) (methyl)amino)methyl)-N-(1H-pyrazolo[3,4-b]pyridin-3-yl)isothiazolo[4,5-b]pyridin-6-amine] | 0.568 | 0.568 |
| CC(C)(C)C1CCN(Cc2nsc3cc(Nc4n[nH]c5ncccc45)cnc23)CC1 [Example 57, 3-((4-(tert-butyl)piperidin-1-yl)methyl)-N-(1H-pyrazolo[3,4-b]pyridin-3-yl)isothiazolo[4,5-b] pyridin-6-amine] | 4.13 | 4.13 |

Results, then the molecule that gave them:

| EC50 [1] [µM] | EC50 [2] [µM] | Structure (SMILES) |
| --- | --- | --- |
| 0.157 | 0.157 | Cc1nsc2cc(Nc3n[nH]c4cccnc34)cnc12 [Example 39, 3-methyl-N-(1H-pyrazolo [4,3-b]pyridin-3-yl)isothiazolo[4,5-b] pyridin-6-amine] |
| 0.0383 | 0.0383 | CCc1nsc2cc(Nc3n[nH]c4cccnc34)cnc12 [Example 41, 3-ethyl-N-(1H-pyrazolo[4,3-b]pyridin-3-yl)isothiazolo [4,5-b]pyridin-6-amine] |
| 1.06 | 1.06 | OCc1nsc2cc(Nc3n[nH]c4cccnc34)cnc12 [Example 47, (6-((1H-pyrazolo[4,3-b]pyridin-3-yl)amino)isothiazolo[4,5-b]pyridin-3-yl)methanol] |
| 1.56 | 1.56 | c1cnc2[nH]nc(Nc3cnc4c(CN5CCCCC5)nsc4c3)c2c1 [Example 49, 3-(piperidin-1-ylmethyl)-N-(1H-pyrazolo[3,4-b]pyridin-3-yl)isothiazolo[4,5-b] pyridin-6-amine] |
| 0.0811 | 0.0811 | FC1(F)CCN(Cc2nsc3cc(Nc4n[nH]c5cccnc45)cnc23)CC1 [Example 50, 3-((4,4-difluoropiperidin-1-yl)methyl)-N-(1H-pyrazolo[4,3-b]pyridin-3-yl) isothiazolo[4,5-b]pyridin-6-amine] |
| 0.247 | 0.247 | FC1CCN(Cc2nsc3cc(Nc4n[nH]c5cccnc45)cnc23)CC1 [Example 51, 3-((4-fluoropiperidin-1-yl)methyl)-N-(1H-pyrazolo[4,3-b]pyridin-3-yl)isothiazolo[4,5-b] pyridin-6-amine] |
| 0.334 | 0.334 | CN(Cc1nsc2cc(Nc3n[nH]c4cccnc34)cnc12)C1CC(F)(F)C1 [Example 52, 3-(((3,3-difluoro-cyclobutyl) (methyl)amino)methyl)-N-(1H-pyrazolo[4,3-b]pyridin-3-yl)isothiazolo[4,5-b] pyridin-6-amine] |
| 0.63 | 0.63 | c1cnc2c(Nc3cnc4c(CN5CCOCC5)nsc4c3)n[nH]c2c1 [Example 54, 3-(morpholinomethyl)-N-(1H-pyrazolo[4,3-b]pyridin-3-yl)isothiazolo[4,5-b] pyridin-6-amine] |
| 1.03 | 1.03 | c1cnc2[nH]nc(Nc3cnc4c(CN5CCOCC5)nsc4c3)c2c1 [Example 55, 3-(morpholinomethyl)-N-(1H-pyrazolo[3,4-b]pyridin-3-yl)isothiazolo[4,5-b] pyridin-6-amine] |
| 1.39 | 1.39 | CC(C)(C)C1CCN(Cc2nsc3cc(Nc4n[nH]c5cccnc45)cnc23)CC1 [Example 56, 3-((4-(tert-butyl)piperidin-1-yl)methyl)-N-(1H-pyrazolo[4,3-b]pyridin-3-yl)isothiazolo[4,5-b] pyridin-6-amine] |

— US10221172B2, “Benzothiazole and benzisothiazole-substituted compounds as mGluR4 allosteric potentiators, compositions, and methods of treating neurological dysfunction” (Vanderbilt University, priority 2015, dated 2019)
